Data reported in patent US20090099167A1, “Organic compounds” (Novartis Institutes for Biomedical Research, priority 2004, published 2009).

Target: T1, human RET (Homo sapiens, UniProt P07949)
T1 construct: fused on or other part: N-terminal GST tag (pFB-GSTX3 vector)
Test: RET kinase inhibition, GST-wtRET or GST-RET-Men2B, 33P incorporation into poly(Glu,Tyr)
Type: biochemical
Details: Table 4
Procedure: The inhibition of RET is measured as follows: The baculovirus donor vector pFB-GSTX3 is used to generate a recombinant baculovirus that expresses the amino acid region 658-1072 (Swiss prot No. Q9BTB0) of the intra-cytoplasmic kinase domain of human RET-Men2A which corresponds to the wild-type kinase domain of RET (wtRET) and RET-Men2B, which differs from the wtRET by the activating mutation in the activation loop M918T. The coding sequences for the cytoplasmic domain of wtRET and RET-Men2B are amplified by PCR from the plasmids pBABEpuro RET-Men2A and pBABEpuro RET-Men2B. The amplified DNA fragments and the pFB-GSTX3 vector are made compatible for ligation by digestion with SalI and KpnI. Ligation of these DNA fragments results in the baculovirus donor plasmid pFB-GX3-RET-Men2A and pFB-GX3-RET-Men2B, respectively. Production of virus: Transfer vectors containing the kinase domains are transfected into the DH10Bac cell line (GIBCO) and plated on selective agar plates. Colonies without insertion of the fusion sequence into the viral genome (carried by the bacteria) are blue. Single, white colonies are picked and viral DNA (bacmid) are isolated from the bacteria by standard plasmid purification procedures. Sf9 cells or Sf21 (American Type Culture Collection) cells are then transfected in 25 cm^2 flasks with the viral DNA using Cellfectin reagent. Determination of small scale protein expression in Sf9 cells: Virus-containing media is collected from the transfected cell culture and used for infection to increase its titer. Virus-containing media obtained after two rounds of infection is used for large-scale protein expression. For large-scale protein expression 100 cm^2 round tissue culture plates are seeded with 5×10^7 cells/plate and infected with 1 mL of virus-containing media (approximately 5 MOIs). After 3 days, the cells are scraped off the plate and centrifuged at 500 rpm for 5 minutes. Cell pellets from 10-20, 100 cm^2 plates, are re-suspended in 50 mL of ice-cold lysis buffer (25 mM tris-HCl, pH 7.5, 2 mM EDTA, 1% NP-40, 1 mM DTT, 1 mM P MSF). The cells are stirred on ice for 15 minutes and then centrifuged at 5,000 rpms for 20 minutes. Purification of GST-tagged proteins: The centrifuged cell lysate is loaded onto a 2 mL glutathione-sepharose column (Pharmacia) and is washed 3× with 10 mL of 25 mM tris-HCl, pH 7.5, 2 mM EDTA, 1 mM DTT, 200 mM NaCl. The GST-tagged proteins are then eluted by 10 applications (1 mL each) of 25 mM tris-HCl, pH 7.5, 10 mM reduced-glutathione, 100 mM NaCl, 1 mM DTT, 10% glycerol and stored at −70° C. Measure of enzyme activity: Tyrosine protein kinase assays with either purified GST-wtRET or GST-RET-Men2B protein are carried out in a final volume of 30 μL containing 15 ng of either GST-wtRET or GST-RET-Men2B protein, 20 mM tris-HCl, pH 7.5, 1 mM MnCl2, 10 mM MgCl2, 1 mM DTT, 3 μg/mL poly(Glu,Tyr) 4:1, 1% DMSO, 2.0 μM ATP (γ-[^33P]-ATP 0.1 μCi). The activity is assayed in the presence or absence of inhibitors, by measuring the incorporation of ^33P from [γ^33P] ATP into poly(Glu,Tyr) 4:1. The assay is carried out in 96-well plates at ambient temperature for 15 minutes under conditions described below and terminated by the addition of 20 μL of 125 mM EDTA. Subsequently, 40 μL of the reaction mixture are transferred onto Immobilon-PVDF membrane (Millipore) previously soaked for 5 minutes with methanol, rinsed with water, then soaked for 5 minutes with 0.5% H3PO4 and mounted on vacuum manifold with disconnected vacuum source. After spotting all samples, vacuum is connected and each well-rinsed with 200 μL 0.5% H3PO4. Membranes are removed and washed 4× on a shaker with 1.0% H3PO4, once with ethanol. Membranes are counted after drying at ambient temperature, mounting in Packard TopCount 96-well frame, and addition of 10 μL/well of Microscint™ (Packard). IC50 values are calculated by linear regression analysis of the percentage inhibition of each compound in duplicate, at 4 concentrations (usually 0.01, 0.1, 1 and 10 μM). […]

T1 sequence (P07949 1-1072 isoform P07949-2): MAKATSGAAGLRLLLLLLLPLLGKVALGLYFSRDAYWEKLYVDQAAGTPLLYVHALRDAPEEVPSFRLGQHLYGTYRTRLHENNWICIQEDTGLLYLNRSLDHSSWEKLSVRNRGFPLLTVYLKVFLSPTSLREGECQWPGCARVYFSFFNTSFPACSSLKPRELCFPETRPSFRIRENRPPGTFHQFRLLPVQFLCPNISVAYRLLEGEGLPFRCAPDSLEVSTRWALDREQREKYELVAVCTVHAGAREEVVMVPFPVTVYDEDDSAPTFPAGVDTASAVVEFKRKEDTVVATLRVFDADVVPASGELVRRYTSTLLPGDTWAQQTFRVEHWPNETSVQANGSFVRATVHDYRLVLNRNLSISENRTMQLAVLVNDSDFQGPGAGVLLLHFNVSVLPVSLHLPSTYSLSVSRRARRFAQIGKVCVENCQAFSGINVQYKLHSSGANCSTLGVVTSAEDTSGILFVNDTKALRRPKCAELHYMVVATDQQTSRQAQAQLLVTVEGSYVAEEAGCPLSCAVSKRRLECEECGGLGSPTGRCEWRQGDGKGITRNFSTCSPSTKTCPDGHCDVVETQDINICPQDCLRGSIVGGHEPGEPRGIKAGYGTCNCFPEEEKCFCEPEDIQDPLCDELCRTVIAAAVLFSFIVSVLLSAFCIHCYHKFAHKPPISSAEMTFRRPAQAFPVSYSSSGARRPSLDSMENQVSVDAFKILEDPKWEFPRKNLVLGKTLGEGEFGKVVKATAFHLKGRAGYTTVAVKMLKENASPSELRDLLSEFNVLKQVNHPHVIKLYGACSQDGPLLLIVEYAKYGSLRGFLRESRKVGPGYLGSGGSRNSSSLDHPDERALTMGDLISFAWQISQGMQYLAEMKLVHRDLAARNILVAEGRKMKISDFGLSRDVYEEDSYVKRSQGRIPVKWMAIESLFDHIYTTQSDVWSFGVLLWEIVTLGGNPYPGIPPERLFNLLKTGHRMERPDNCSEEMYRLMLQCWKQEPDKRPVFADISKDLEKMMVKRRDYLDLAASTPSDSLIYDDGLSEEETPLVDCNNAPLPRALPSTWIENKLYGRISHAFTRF

IC50 [µM]	SMILES
< 10	CN1CCN(c2ccc(-c3cnn4c(N)c(-c5cccc(O)c5)cnc34)cc2)CC1 [Example 1, 3-{7-Amino-3-[4-(4-methyl-piperazin-1-yl)-phenyl]-pyrazolo[1,5-a]pyrimidin-6-yl}-phenol]
< 10	CN1CCN(c2cccc(-c3cnn4c(N)c(-c5cccc(O)c5)cnc34)c2)CC1 [Example 29, 3-{7-Amino-3-[3-(4-methyl-piperazin-1-yl)-phenyl]-pyrazolo[1,5-a]pyrimidin-6-yl}-phenol]
< 10	CN1CCN(c2cccc(-c3cnn4c(N)c(-c5ccc(O)cc5)cnc34)c2)CC1 [Example 39, 4-{7-Amino-3-[3-(4-methyl-piperazin-1-yl)-phenyl]-pyrazolo[1,5-a]pyrimidin-6-yl}-phenol]
< 10	COc1ccccc1-c1cnn2c(N)c(-c3cccc(O)c3)cnc12 [Example 48, 3-[7-Amino-3-(2-methoxy-phenyl)-pyrazolo[1,5-a]pyrimidin-6-yl]-phenol]
